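Exposure lasted 48 hours, with cells grown in 96-well plates and compounds tested at five concentrations. GI50 marks 50% less growth.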 Active and inactive are the calls of the source. Rule as the data show it: active = GI50 up to about 1.1 µM and inactive = higher.
Columns and labels:
Assay in all cases: NCI tumour cell line growth inhibition, 48 h
SN12C = test system: SN12C
HOP-62 = test system: HOP-62
Malme-3M = test system: Malme-3M
MOLT-4 = test system: MOLT-4
SK-MEL-5 = test system: SK-MEL-5
HCT-116 = test system: HCT-116
U-251 = test system: U-251
TK-10 = test system: TK-10
OVCAR-8 = test system: OVCAR-8
DU-145 = test system: DU-145
NCI-H226 = test system: NCI-H226
OVCAR-3 = test system: OVCAR-3
NCI-H460 = test system: NCI-H460
LOX IMVI = test system: LOX IMVI
PC-3 = test system: PC-3
M14 = test system: M14
SNB-19 = test system: SNB-19
UACC-257 = test system: UACC-257
A498 = test system: A498
CCRF-CEM = test system: CCRF-CEM

Measured: GI50

NCCCc1ccc2oc3ccccc3c2c1
inactive: SN12C 17 µM | HOP-62 17.6 µM | Malme-3M 17.5 µM | MOLT-4 11.8 µM | SK-MEL-5 14.9 µM | HCT-116 15.3 µM | U-251 18.7 µM | TK-10 16.7 µM | OVCAR-8 22.7 µM | DU-145 16.9 µM | NCI-H226 19.1 µM | OVCAR-3 17.2 µM | NCI-H460 17 µM | LOX IMVI 18.5 µM | PC-3 18.7 µM | M14 15.8 µM | SNB-19 16 µM | UACC-257 17.9 µM | A498 16.1 µM | CCRF-CEM 11.6 µM

CC(C)(C)c1cc(OCc2nnc3sc(S)nn23)c(Cl)cc1OCc1nnc2sc(S)nn12
inactive: SN12C 30.4 µM | HOP-62 44.1 µM | Malme-3M 16.6 µM | MOLT-4 23.8 µM | SK-MEL-5 14.5 µM | HCT-116 22.1 µM | U-251 29.1 µM | TK-10 35 µM | OVCAR-8 37.2 µM | DU-145 30.3 µM | NCI-H226 > 100 µM | OVCAR-3 25.2 µM | NCI-H460 29 µM | LOX IMVI 18.4 µM | PC-3 50.9 µM | M14 25.9 µM | SNB-19 35.5 µM | UACC-257 27.7 µM | A498 39.6 µM | CCRF-CEM 11.3 µM

COc1c(-c2ccc(O)c(O)c2)oc2c(O)c(O)cc(O)c2c1=O
inactive: SN12C 16.9 µM | HOP-62 26.7 µM | Malme-3M > 100 µM | MOLT-4 28.6 µM | SK-MEL-5 45.4 µM | HCT-116 40.4 µM | U-251 34.8 µM | TK-10 > 100 µM | OVCAR-8 > 100 µM | DU-145 > 100 µM | NCI-H226 > 100 µM | OVCAR-3 56.8 µM | NCI-H460 55.6 µM | LOX IMVI 15.2 µM | PC-3 > 100 µM | M14 > 10 µM | SNB-19 > 100 µM | UACC-257 > 100 µM | A498 > 100 µM | CCRF-CEM 29.2 µM

CN(CCNC(=O)c1n[nH]c2c1Cc1ccccc1-2)CCNC(=O)c1n[nH]c2c1Cc1ccccc1-2
inactive: SN12C 16.7 µM | HOP-62 14.8 µM | Malme-3M 19.2 µM | MOLT-4 19.4 µM | SK-MEL-5 16.9 µM | HCT-116 16.2 µM | U-251 19.3 µM | TK-10 19.1 µM | OVCAR-8 20.9 µM | DU-145 15.5 µM | NCI-H226 19.1 µM | OVCAR-3 14.9 µM | NCI-H460 18.1 µM | LOX IMVI 18.9 µM | PC-3 17.8 µM | M14 18.7 µM | SNB-19 16.8 µM | UACC-257 18.8 µM | A498 18.6 µM | CCRF-CEM 18.1 µM

O=C1CSC(=S)N1c1ccco1
inactive: SN12C 57.1 µM | HOP-62 > 100 µM | Malme-3M > 100 µM | MOLT-4 > 100 µM | SK-MEL-5 43 µM | HCT-116 60.4 µM | U-251 > 100 µM | TK-10 > 100 µM | OVCAR-8 56.5 µM | DU-145 > 100 µM | NCI-H226 > 100 µM | OVCAR-3 77.8 µM | NCI-H460 > 100 µM | LOX IMVI 79.6 µM | PC-3 71.3 µM | M14 44.2 µM | SNB-19 > 100 µM | UACC-257 > 100 µM | A498 > 100 µM | CCRF-CEM > 100 µM

NC(=O)c1ncn2c(=O)n(CCl)nnc12
inactive: SN12C > 100 µM | HOP-62 > 100 µM | Malme-3M > 100 µM | MOLT-4 > 100 µM | SK-MEL-5 > 100 µM | HCT-116 28.2 µM | U-251 > 100 µM | TK-10 63.1 µM | OVCAR-8 97.1 µM | DU-145 > 100 µM | NCI-H226 > 100 µM | OVCAR-3 > 100 µM | NCI-H460 51.6 µM | LOX IMVI 15.8 µM | PC-3 > 100 µM | M14 > 100 µM | SNB-19 > 100 µM | UACC-257 > 100 µM | A498 > 100 µM | CCRF-CEM 22.4 µM

CC(NC(=O)OCc1ccccc1)NC(=O)C(CC(=O)OC(C)(C)C)NC(=O)OC(C)(C)C (stereo not given)
inactive: SN12C > 100 µM | HOP-62 > 100 µM | Malme-3M > 100 µM | MOLT-4 > 100 µM | SK-MEL-5 > 100 µM | HCT-116 > 100 µM | U-251 > 100 µM | TK-10 > 100 µM | OVCAR-8 > 100 µM | DU-145 > 100 µM | NCI-H226 > 100 µM | OVCAR-3 > 100 µM | NCI-H460 > 100 µM | LOX IMVI > 100 µM | PC-3 > 100 µM | M14 > 100 µM | SNB-19 > 100 µM | UACC-257 > 100 µM | A498 > 100 µM | CCRF-CEM > 100 µM
